Experimental data reported in patent publication US11938195B2, “Upconversion nanoparticle peptide conjugates” (BP InnoMed Limited, priority 2021, dated 2024).
Where no end group is shown, it is not given here. [ ]: non-standard residue; d: D form. Ahx = NCCCCCC(=O)O

Key:
[1] = test system: EBV-negative HeLa cells; experiment: MTT cytotoxicity assay, HeLa cells; assay type: cell-based, human; set-up: unit not given here; conditions: 24 h incubation
[2] = Peptide release from nanoprobes under various pH buffers (UV-vis absorbance); assay type: physicochemical; conditions: 24 h in buffer, 0.5 mg/mL
Text: The stability and capability of cleavage of the pH linker were also studied. […] More importantly, TEM images of UCNP-P5 at different pH buffers were observed and investigated in FIG. 1, providing direct evidence on pH-responsive peptide release from UCNP. […]

[3] = test system: C666 cells; experiment: Cellular uptake by ICP-MS, C666; assay type: cell-based
Description: (§1) Subsequently, the quantitative distribution and uptake efficiency of nanoprobes in vitro in C666, HK1, HK1-LMP1 and LCL3 cells lines were monitored and investigated by evaluating the lanthanide content originating from the nanoprobes using inductively coupled plasma mass spectrometry (ICP-MS).
(§2) After co-incubation, the cell culture medium containing the nanoprobes was removed, and the exposed cells were further rinsed with 1 mL PBS three times. After that, the cells were trypsinized and re-dispersed in 1 mL cell medium. The cells were collected by centrifugation at 1500 rpm, and the cell pellet was digested in 100 μL concentrated HNO3 (69%) at room temperature for 3 h. Then, each cell pellet in centrifuge tube was filled up to 10 mL with 1% HNO3. The cellular uptake of all the nanoprobes was recorded via an Agilent 7500 series ICP-MS instrument. All ICP experiments were performed three times, and the values of Gd concentration (ppm) obtained were calculated and averaged.

[4] = test system: LCL3 cells; experiment: Cellular uptake by ICP-MS, LCL3; assay type: cell-based
Description: as §1, §2

[5] = test system: HK1-LMP1 cells; experiment: Cellular uptake by ICP-MS, HK1-LMP1; assay type: cell-based
Description: as §1, §2

[6] = test system: p65; experiment: Western blot of p65 (NF-κB) in LCL3 cells; assay type: cell-based
Text: NF-κB signaling pathway is critical for the survival of EBV-infected tumor cells. Here we investigated if our nanoprobes could affect this oncogenic pathway. EBV-positive LCL3 and C666 cells were used as models, EBV-negative HK1 cells were used as control and Western blot was used to analyze the protein expression of p65, a major transcription factor in the NF-κB family. […] GAPDH and Histone are regarded as internal standards in cytosolic and nuclear fractions, respectively. […] This is consistent with the cellular uptake results.
Western blotting: EBV-positive C666, LCL3 and EBV-negative HK1 cell pellets were treated with phosphatase and protease inhibitors at 0-4° C. for 30 min. The total protein concentrations were calculated by protein absorbance. The protein was resolved by sodium dodecyl sulfate-polyacrylamide gel electrophoresis (SDS-PAGE) and transferred to cellulose filter membranes. The membranes were blocked with 3% BSA in Tris-buffered saline in 0.1% Tween 20 (TBST) for 1 h with gentle shaking and subsequently incubated with primary antibodies (1:1000) in 3% BSA in TBST at 4° C. for overnight. After rinsing with TBST buffer three times, the blots were then incubated with corresponding secondary anti-rabbit antibody (1:6000) for 1 h. After that, the blots were rinsed again with 3% BSA in TBST for 1 h shaking at room temperature. Lastly, the density of bands was determined by image analysis system after washing with TBST buffer three times.

[7] = test system: C666 derived xenografts; experiment: In vivo suppression assay, C666 xenograft
Text: To determine the antitumor efficacy of the new nanoprobes in vivo, their therapeutic effects were investigated in C666 and HeLa derived xenografts in BALB/c nude mice. The mice were randomly divided into five groups: (1) control (PBS), (2) UCNP, (3) UCNP-P5, (4) UCNP-P6, (5) UCNP-P7. In order to recapitulate the clinical setting of drug delivery, intravenous injection (via a tail vein) was used to deliver these agents to the immunocompromised animal.
In vivo suppression assays: EBV-positive C666 and EBV-negative HeLa cells were suspended in 200 μL of serum-free RMPI 1640 and DMEM respectively. Female BALB/c nude mice (6-8 weeks) which obtained from HKU were then injected with the cells in the right flank. Intravenous injections were performed when the average tumor volumes reached ˜200 mm^3. 0.25 mg/tumor dose of UCNP and UCNP-Pn [n=5, 6 and 7 (SEQ ID NO: 5, 6, 7)] in […] PBS buffer were injected through tail vein of mice using a 24-gauge syringe. Mice injected with the same volume of PBS buffer served as control. The body weight and tumor volumes of the mice were measured three times per week; in which the latter is calculated by (L×W^2)/2, where L and W are the longer and shorter tumor dimensions respectively. Intravenous injection at the tail vein were performed twice a week and the mice were sacrificed after 33-day experimental period; the tumors were extracted and weighed. The treatment groups are unknown to the investigators for the experimental and data analysis processes. The animal experiments conducted were approved by the Department of Health of the HKSAR Government. All animal procedures are within the Guidelines for Care and Use of Laboratory Animals of HKBU and approved by the Animal Ethics Committee of HKBU.
Hematoxylin and eosin (H&E) staining: In general, the transplanted C666 and HeLa derived tumor tissues were collected and fixed with formalin, followed by embedding in paraffin. The histologic sections were then stained with hematoxylin and eosin. Other major organ tissues (heart, liver, spleen, lung, kidney, brain) were conducted in the same procedures.

[8] = C666 tumor-bearing mice, 33-day experimental period

UCNP-P5: UCNP is NaGdF4:Yb^3+, Er^3+@NaGdF4 and plurality of polypeptides is Ahx-YFMVFGGRrRKGGFWLY (SEQ ID NO: 5), pH-sensitive imine linker ([Ahx]YFMVFGGR[dR]RKGGFWLY; also: conjugated to UCNP NaGdF4:Yb3+,Er3+@NaGdF4 via pH-sensitive imine linker)
IC50 in HeLa [1]: 1086
Peptide release rate ([2]; pH 5.0): 84.6%
Peptide release rate ([2]; pH 5.5): 56.1%
Peptide release rate ([2]; pH 6.0): 34.8%
Peptide release rate ([2]; pH 6.5): 20.9%
Peptide release rate ([2]; pH 7.0): 6.1%
Peptide release rate ([2]; pH 7.4): 0%
Cellular uptake (Gd amount by ICP-MS) ([3]; 50 μg/mL): largest amount of cellular uptake
Gd amount relative to UCNP-P4 ([3]; 24 h incubation): over twice
Cellular uptake (Gd amount by ICP-MS) ([4]; 50 μg/mL): largest amount of cellular uptake
Gd amount relative to UCNP-P4 ([4]; 24 h incubation): over twice
Uptake relative to UCNP-P6 and UCNP-P7 ([5]; HK1-LMP1 (HK1 / HK1-LMP1 cell pair)): two-fold
Cellular uptake (Gd amount by ICP-MS) ([5]; HK1-LMP1, 50 μg/mL): largest amount of cellular uptake
Decreased p65 expression, nuclear fraction [6]: 86%
Effect on average tumor size ([7]; 12.5 mg/kg, intravenous (tail vein), twice a week, 33 days): significantly reduce the average tumor size
Tumor uptake relative to UCNP-P6 and UCNP-P7 (ICP-MS biodistribution) ([7]; C666 tumor, Gd ions): ~3 fold
Body weight [7, 8]: slightly increased
Various organ weights [7, 8]: slightly increased
